Read-outs that look alike come from different tables or passages of the source.
Legend:
Assay in all cases: HOTSPOT radiometric kinase assay
[1] = target: T1, smMLCK (Homo sapiens, UniProt Q15746); type: biochemical; conditions: 10 μM ATP
T1 construct: purchased Reaction Biology Corp

[2] = target: T2, CLK3 (Homo sapiens, UniProt P49761); type: biochemical; conditions: 10 μM ATP
T2 construct: purchased Reaction Biology Corp. (Malvern, PA, USA)

[3] = target: T3, BMX (Homo sapiens, UniProt P51813); type: biochemical; conditions: 10 μM ATP
T3 construct: purchased Reaction Biology Corp

[4] = target: ERK1 (Homo sapiens, UniProt P27361)
[5] = target: T4, HASPIN (Homo sapiens, UniProt Q8TF76); type: biochemical; conditions: 10 μM ATP
T4 construct: purchased Reaction Biology Corp
T4 sequence (Q8TF76 whole entry): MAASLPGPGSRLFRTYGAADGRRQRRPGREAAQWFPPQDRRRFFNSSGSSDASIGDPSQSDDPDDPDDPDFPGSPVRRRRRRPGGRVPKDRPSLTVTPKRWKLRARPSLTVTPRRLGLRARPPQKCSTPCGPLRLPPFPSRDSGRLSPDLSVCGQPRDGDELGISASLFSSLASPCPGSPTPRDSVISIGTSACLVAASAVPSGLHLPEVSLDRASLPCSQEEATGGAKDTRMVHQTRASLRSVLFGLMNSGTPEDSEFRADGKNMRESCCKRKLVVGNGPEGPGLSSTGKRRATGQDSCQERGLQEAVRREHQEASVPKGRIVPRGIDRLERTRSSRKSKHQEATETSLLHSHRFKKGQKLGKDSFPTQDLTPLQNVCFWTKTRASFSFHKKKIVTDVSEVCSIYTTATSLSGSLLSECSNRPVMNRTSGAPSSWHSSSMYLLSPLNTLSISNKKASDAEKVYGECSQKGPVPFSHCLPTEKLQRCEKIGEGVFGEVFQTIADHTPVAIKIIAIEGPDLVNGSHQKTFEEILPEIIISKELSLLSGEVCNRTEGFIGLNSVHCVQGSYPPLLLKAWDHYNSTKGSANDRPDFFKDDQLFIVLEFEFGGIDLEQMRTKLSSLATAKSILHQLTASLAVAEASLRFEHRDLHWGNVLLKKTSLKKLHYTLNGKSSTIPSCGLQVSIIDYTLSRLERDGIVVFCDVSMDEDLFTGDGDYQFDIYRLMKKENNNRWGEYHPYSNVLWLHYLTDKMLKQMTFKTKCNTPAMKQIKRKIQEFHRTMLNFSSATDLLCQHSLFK

[6] = target: T5, ROCK1 (Homo sapiens, UniProt Q13464); type: biochemical; conditions: 10 μM ATP
T5 construct: purchased Reaction Biology Corp
T5 sequence (Q13464 whole entry): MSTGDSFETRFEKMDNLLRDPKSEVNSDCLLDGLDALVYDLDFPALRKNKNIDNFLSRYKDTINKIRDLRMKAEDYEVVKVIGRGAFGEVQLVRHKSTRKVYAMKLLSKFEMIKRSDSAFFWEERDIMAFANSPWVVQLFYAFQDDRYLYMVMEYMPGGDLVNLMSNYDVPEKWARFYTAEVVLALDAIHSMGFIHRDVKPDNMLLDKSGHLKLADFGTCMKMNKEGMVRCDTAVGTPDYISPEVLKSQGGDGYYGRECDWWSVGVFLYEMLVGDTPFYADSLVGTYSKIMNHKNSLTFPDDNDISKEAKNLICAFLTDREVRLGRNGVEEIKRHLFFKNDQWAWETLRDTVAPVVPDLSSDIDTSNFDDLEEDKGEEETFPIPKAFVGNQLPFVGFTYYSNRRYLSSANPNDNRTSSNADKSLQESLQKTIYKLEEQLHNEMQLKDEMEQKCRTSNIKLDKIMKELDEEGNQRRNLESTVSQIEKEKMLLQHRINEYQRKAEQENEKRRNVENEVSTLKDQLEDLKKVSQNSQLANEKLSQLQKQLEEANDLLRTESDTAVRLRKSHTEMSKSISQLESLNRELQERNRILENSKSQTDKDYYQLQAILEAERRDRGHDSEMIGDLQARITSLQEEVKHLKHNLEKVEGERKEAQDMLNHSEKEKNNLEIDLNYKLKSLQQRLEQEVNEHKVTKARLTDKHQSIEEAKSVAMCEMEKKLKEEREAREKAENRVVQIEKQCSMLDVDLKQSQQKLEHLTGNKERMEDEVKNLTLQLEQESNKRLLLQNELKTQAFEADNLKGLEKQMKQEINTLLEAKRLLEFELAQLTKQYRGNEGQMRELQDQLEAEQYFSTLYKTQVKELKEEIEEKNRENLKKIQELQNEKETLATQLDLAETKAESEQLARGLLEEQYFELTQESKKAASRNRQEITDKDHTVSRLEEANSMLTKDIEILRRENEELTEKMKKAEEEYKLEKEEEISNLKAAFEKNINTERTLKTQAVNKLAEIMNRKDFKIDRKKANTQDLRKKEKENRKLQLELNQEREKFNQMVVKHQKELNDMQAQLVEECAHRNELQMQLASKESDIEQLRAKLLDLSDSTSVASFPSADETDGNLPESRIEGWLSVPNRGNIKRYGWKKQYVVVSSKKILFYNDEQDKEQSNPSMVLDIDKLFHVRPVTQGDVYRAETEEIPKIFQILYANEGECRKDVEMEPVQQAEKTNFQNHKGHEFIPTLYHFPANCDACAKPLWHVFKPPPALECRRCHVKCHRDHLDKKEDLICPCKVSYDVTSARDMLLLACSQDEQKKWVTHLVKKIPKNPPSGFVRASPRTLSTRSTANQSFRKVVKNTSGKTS

[7] = target: GSK3β (Homo sapiens, UniProt P49841)
[8] = target: T6, DCAMKL1 (Homo sapiens, UniProt O15075); type: biochemical; conditions: 10 μM ATP
T6 construct: purchased Reaction Biology Corp

[9] = target: T7, CDK2 (Homo sapiens, UniProt P24941); type: biochemical; conditions: 10 μM ATP
T7 construct: purchased Reaction Biology Corp

[10] = target: T8, LATS1 (Homo sapiens, UniProt O95835); type: biochemical; conditions: 10 μM ATP
T8 construct: purchased Reaction Biology Corp
T8 sequence (O95835 1-1130): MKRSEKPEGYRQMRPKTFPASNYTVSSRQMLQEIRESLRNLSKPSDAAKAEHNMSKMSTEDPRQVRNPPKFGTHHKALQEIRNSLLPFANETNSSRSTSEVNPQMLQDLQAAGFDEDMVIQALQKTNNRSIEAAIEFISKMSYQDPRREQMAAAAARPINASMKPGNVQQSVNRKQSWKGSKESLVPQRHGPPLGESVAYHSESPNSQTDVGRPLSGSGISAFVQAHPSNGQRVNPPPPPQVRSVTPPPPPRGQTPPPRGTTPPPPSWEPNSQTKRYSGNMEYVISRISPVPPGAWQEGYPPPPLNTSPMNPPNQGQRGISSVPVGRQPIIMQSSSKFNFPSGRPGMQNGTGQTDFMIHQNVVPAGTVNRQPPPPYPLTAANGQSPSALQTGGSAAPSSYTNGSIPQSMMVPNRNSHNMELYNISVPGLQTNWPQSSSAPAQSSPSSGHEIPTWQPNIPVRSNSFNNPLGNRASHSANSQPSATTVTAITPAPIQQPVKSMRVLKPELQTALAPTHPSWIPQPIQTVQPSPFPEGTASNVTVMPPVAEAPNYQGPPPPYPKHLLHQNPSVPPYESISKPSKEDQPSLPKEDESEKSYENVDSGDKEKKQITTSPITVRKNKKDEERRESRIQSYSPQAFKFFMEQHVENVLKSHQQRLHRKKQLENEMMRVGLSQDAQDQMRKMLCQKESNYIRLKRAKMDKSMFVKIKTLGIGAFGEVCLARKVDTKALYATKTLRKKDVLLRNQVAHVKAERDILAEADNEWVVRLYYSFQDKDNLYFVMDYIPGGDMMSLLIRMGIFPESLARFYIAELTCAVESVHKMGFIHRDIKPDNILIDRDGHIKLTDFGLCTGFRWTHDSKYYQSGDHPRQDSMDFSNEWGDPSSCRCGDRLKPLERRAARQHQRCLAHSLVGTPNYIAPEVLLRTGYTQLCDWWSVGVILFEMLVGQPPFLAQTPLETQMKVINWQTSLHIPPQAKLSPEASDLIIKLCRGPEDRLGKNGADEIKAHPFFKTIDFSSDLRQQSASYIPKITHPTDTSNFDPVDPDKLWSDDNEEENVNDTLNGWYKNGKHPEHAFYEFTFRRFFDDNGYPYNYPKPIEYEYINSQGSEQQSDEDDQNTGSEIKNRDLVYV

[11] = target: T9, LATS2 (Homo sapiens, UniProt Q9NRM7); type: biochemical; conditions: 10 μM ATP
T9 construct: purchased Reaction Biology Corp
T9 sequence (Q9NRM7 whole entry): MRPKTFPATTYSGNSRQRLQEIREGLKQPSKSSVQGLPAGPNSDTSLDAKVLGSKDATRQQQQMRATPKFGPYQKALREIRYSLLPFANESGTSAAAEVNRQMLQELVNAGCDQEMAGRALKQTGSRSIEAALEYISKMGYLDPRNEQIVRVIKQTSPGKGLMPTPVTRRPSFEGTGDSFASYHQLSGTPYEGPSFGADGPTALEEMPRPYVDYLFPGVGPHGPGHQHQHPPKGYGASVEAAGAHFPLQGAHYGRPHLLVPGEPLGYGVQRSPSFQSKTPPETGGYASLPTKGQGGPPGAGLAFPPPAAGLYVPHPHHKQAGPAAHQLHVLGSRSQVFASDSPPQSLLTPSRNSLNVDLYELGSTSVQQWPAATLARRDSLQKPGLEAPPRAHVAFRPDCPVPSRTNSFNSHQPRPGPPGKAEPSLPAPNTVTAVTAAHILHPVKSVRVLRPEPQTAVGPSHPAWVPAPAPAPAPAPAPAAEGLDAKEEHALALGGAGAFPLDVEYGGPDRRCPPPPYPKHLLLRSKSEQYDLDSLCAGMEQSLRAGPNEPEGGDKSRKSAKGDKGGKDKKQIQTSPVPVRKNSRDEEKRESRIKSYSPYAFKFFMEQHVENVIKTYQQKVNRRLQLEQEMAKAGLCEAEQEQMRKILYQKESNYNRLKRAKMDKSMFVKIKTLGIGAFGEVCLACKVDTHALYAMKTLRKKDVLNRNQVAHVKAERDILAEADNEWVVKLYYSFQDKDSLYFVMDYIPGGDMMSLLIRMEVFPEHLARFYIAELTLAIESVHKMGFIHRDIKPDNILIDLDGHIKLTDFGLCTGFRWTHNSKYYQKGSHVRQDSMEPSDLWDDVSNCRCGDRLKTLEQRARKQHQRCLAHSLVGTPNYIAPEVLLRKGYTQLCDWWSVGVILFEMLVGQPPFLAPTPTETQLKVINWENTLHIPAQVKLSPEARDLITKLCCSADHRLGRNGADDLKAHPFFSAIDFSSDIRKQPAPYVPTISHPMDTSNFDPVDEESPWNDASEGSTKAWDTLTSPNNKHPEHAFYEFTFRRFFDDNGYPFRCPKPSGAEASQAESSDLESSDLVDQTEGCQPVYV

[12] = target: T10, PKG2 (Homo sapiens, UniProt Q13237); type: biochemical; conditions: 10 μM ATP
T10 construct: purchased Reaction Biology Corp

[13] = target: AKT1 (Homo sapiens, UniProt P31749)
Sequence of AKT1 (P31749 whole entry): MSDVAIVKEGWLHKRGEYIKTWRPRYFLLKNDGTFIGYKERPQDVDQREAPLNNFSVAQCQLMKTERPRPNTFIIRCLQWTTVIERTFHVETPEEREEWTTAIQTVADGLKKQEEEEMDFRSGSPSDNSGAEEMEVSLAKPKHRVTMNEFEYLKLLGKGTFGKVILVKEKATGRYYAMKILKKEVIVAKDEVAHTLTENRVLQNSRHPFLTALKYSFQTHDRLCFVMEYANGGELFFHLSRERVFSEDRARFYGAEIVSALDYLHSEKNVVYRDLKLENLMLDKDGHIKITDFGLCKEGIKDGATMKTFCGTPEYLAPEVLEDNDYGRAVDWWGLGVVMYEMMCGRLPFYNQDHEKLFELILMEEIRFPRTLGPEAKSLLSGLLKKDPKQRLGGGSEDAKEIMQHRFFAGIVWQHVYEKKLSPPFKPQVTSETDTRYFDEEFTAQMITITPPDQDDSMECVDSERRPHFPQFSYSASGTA

[14] = target: T11, PKD2 (Homo sapiens, UniProt Q9BZL6); type: biochemical; conditions: 10 μM ATP
T11 construct: purchased Reaction Biology Corp

[15] = target: T12, YSK1 (Homo sapiens, UniProt O00506); type: biochemical; conditions: 50 nM, 10 μM ATP
T12 construct: purchased Reaction Biology Corp

[16] = target: CK1α1 (Homo sapiens, UniProt P48729)
[17] = target: T13, MST3 (Homo sapiens, UniProt Q9Y6E0); type: biochemical; conditions: 10 μM ATP
T13 construct: purchased Reaction Biology Corp

[18] = target: T14, PKCμ/PKD1 (Homo sapiens, UniProt Q15139); type: biochemical; conditions: 10 μM ATP
T14 construct: purchased Reaction Biology Corp

[19] = target: T15, CLK4 (Homo sapiens, UniProt Q9HAZ1); type: biochemical
T15 construct: purchased Reaction Biology Corp
T15 sequence (Q9HAZ1 whole entry): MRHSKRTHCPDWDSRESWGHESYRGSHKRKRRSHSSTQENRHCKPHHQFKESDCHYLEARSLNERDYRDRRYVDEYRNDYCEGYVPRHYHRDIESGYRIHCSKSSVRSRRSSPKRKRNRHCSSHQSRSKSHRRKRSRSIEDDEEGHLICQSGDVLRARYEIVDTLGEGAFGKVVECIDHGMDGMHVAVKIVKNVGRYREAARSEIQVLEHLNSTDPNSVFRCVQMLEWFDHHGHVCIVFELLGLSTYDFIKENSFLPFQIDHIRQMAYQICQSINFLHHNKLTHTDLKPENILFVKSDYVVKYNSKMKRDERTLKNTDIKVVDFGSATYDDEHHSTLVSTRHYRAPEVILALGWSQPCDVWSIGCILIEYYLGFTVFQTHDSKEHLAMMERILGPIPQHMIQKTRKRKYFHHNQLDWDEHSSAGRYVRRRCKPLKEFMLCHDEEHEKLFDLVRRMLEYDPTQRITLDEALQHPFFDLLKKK

[20] = target: T16, CLK2 (Homo sapiens, UniProt P49760); type: biochemical; conditions: 10 μM ATP
T16 construct: purchased Reaction Biology Corp

[21] = target: T17, MSK2 (Homo sapiens, UniProt O75676); type: biochemical; conditions: 10 μM ATP
T17 construct: purchased Reaction Biology Corp
T17 sequence (O75676 whole entry): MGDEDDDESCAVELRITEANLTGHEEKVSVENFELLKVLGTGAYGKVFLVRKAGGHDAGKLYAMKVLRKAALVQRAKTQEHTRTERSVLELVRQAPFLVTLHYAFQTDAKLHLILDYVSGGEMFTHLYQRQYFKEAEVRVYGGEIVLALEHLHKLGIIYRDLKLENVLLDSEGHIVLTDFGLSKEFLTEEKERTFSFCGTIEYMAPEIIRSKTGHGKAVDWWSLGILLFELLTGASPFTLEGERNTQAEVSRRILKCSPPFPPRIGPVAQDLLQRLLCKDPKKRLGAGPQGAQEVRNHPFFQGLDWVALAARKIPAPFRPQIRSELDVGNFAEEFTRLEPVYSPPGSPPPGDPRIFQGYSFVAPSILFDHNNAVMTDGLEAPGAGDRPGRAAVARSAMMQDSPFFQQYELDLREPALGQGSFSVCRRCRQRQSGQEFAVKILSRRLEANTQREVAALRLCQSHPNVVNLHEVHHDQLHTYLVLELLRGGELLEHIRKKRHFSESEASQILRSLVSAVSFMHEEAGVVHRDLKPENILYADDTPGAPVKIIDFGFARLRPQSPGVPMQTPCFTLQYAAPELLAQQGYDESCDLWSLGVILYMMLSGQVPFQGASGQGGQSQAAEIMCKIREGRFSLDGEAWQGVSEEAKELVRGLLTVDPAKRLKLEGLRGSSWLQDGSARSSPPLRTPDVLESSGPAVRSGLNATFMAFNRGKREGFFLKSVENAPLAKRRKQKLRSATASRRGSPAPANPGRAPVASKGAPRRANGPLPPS

## Cn1cncc1C1=CN(c2ncnc3nc[nH]c23)CCS1 [Compound 1, Aplithianine A]
[1]; 50 nM
  inhibition at 0.05 µM: 18.2%
[1]; 2 μM
  inhibition at 2 µM: 91.1%
[2]
  IC50: 14100 nM
[3]; 50 nM
  inhibition at 0.05 µM: 13.9%
[3]; 2 μM
  inhibition at 2 µM: 40%
[4]
  IC50: 800 to 6600 nM
[4]; read-out: ERK1 IC50, 10 μM ATP
  IC50: 5720 nM
[5]; 50 nM
  inhibition at 0.05 µM: 25.6%
[5]; 2 μM
  inhibition at 2 µM: 88.4%
[6]; 50 nM
  inhibition at 0.05 µM: 27%
[6]; 2 μM
  inhibition at 2 µM: 88.6%
[7]
  IC50: 43 to 189 nM
[7]; read-out: GSK3β IC50, 10 μM ATP
  IC50: 99 nM
[8]; 50 nM
  inhibition at 0.05 µM: 12.8%
[8]; 2 μM
  inhibition at 2 µM: 14.2%
[9]; 50 nM
  inhibition at 0.05 µM: 12.6%
[9]; 2 μM
  inhibition at 2 µM: 49.1%
[10]; 50 nM
  inhibition at 0.05 µM: 35%
[10]; 2 μM
  inhibition at 2 µM: 96.1%
[11]; 50 nM
  inhibition at 0.05 µM: 34.2%
[11]; 2 μM
  inhibition at 2 µM: 92.9%
[12]
  inhibition at 2 µM: 99.4%
[13]
  IC50: 43 to 189 nM
[13]; read-out: AKT1 % inhibition
  inhibition at 0.05 µM: 25.1%
  inhibition at 2 µM: 83.7%
[13]; read-out: AKT1 IC50, 10 μM ATP
  IC50: 179 nM
[14]; 50 nM
  inhibition at 0.05 µM: 38.2%
[14]; 2 μM
  inhibition at 2 µM: 93.1%
[15]
  inhibition at 0.05 µM: 13.5%
[16]
  IC50: 800 to 6600 nM
[16]; read-out: CK1α1 IC50, 10 μM ATP
  IC50: 1830 nM
[17]; 50 nM
  inhibition at 0.05 µM: 13.2%
[17]; 2 μM
  inhibition at 2 µM: -15.6%
[18]; 50 nM
  inhibition at 0.05 µM: 21.3%
[18]; 2 μM
  inhibition at 2 µM: 89.2%
[19]; 50 nM, 10 μM ATP
  inhibition at 0.05 µM: 27.1%
[19]; 2 μM, 10 μM ATP
  inhibition at 2 µM: 84.7%
[19]; 10 μM ATP, read-out: CLK4 IC50
  IC50: 153 nM
[19]; IC50 (kinase)/IC50 (PKG1a)
  CLK4 Differential (as compared to PKG1a): 13.49
[19]; Table 4 dose-response, read-out: CLK4 IC50 Values
  IC50: 154 nM
[20]
  inhibition at 2 µM: 97.8%
[21]; 50 nM
  inhibition at 0.05 µM: 13.3%
[21]; 2 μM
  inhibition at 2 µM: 75.5%

— patent publication US20260184713A1, “KINASE INHIBITORS” (The United States of America, as represented by the …, priority 2022, published 2026)
